Patent publication US20250325636A1, “USE OF ENDOTHELIN RECEPTOR TYPE B AGONISTS FOR THE TREATMENT OF AORTIC VALVE STENOSIS” (INSTITUT NATIONAL DE LA SANTÉ ET DE LA RECHERCHE MÉDICALE, priority 2022, published 2025)

Tested on: valvular interstitial cells (VIC)
Assay: Calcium content of valvular interstitial cells cultured in pro-calcifying medium containing inorganic phosphate (o-cresolphtalein-based assay)
Format: cell-based, human
Conditions: VIC in procalcifying conditions containing inorganic phosphate (Pi), 10 days, compared to non-treated VIC
Description: Valvular endothelial cells (VEC), isolated from human aortic valves, were cultured in a cell perfusion system to assess ET-1 production in different fluid flow shear stress conditions. In addition, valvular interstitial cells (VIC) were cultured in a pro-calcifying culture medium containing inorganic phosphate (Pi) with or without antagonists of either the ETA or ETB receptor antagonists or with the agonist of the ETB receptor IRL 1620 during 10 days. Aortic valves from rats were also cultured in ex vivo and stimulated with ET-1 antagonists. Calcium content was assessed using an o-cresolphtalein-based assay and fluorescence by Osteosens. VEC prepro-ET-1 and VIC osteogenic mRNA expression levels were evaluated by RTqPCR.

With “N-Succinyl-[Glu9, Alal U5]-Endothelin 1 fragment 8-21 [IRL-1620]” the “Calcium content of VIC” value was “decreased the calcium content of VIC” and the “Calcium content of VIC” value (listed as IRL 1620) was “decreases their calcium content”.
